# Measurements published in patent US20120270928A1, “MICRORNA COMPOUNDS AND METHODS FOR MODULATING MIR-21 ACTIVITY” (REGULUS THERAPEUTICS INC., priority 2011, published 2012).
# Where “and” joins values, the source holds several entries; their conditions need not be identical. Equal values may be shown once.
# Key:
# [1] = system: ischemia reperfusion injury/nephrectomy (IR/Nx) model; assay: Ischemia reperfusion injury/nephrectomy (IR/Nx) model: urinary albumin to creatinine ratio; type: in vivo, mouse; details: for geometric mean of the urinary albumin to creatinine ratio: 20 mg/kg subcutaneously on days 2, 3, 4, and 8, urine on day 9
# Source text: An ischemia reperfusion injury/nephrectomy (IR/Nx) model is created in the mouse through temporary unilateral clamping of an artery in one kidney, which leads to tubule damage, inflammation, and fibrosis, followed by removal of the second kidney at a later timepoint. In this model, the acute kidney dysfunction phase is useful to test candidate agents for the treatment of acute kidney injury (i.e. up to about the first 5 days), and the later phases of kidney dysfunction are useful to model chronic fibrosis (i.e. after about the first 5 days).
# Unilateral IR was induced for a period of 30 minutes. Treatment groups were as follows: sham IR procedure; IR with PBS administered subcutaneously; IR with mismatched control 25109 administered subcutaneously at a dose of 20 mg/kg; IR with anti-miR-21 compound 25070 administered subcutaneously at a dose of 20 mg/kg; and IR with anti-miR-21 compound 25923 administered subcutaneously at a dose of 20 mg/kg. PBS or anti-miR was administered on days 2, 3, 4, and 8 following IR. On day 8, the healthy kidney was removed by nephrectomy from each animal, and animals were sacrificed on day 9. Just prior to sacrifice, urine was collected by direct bladder puncture.
# Urinary albumin to creatinine ratio was measured in the urine from each mouse. […] The geometric mean of the albumin to creatinine ratio in each group of mice was 16 μgAlb/mgCr (nephrectomy-only control), 127 μgAlb/mgCr (IR/Nx, PBS control), 140 μgAlb/mgCr (IR/Nx, 25109 control), 40 μgAlb/mgCr (IR/Nx, 25070), and 31 μgAlb/mgCr (IR/Nx, 25923). Blood urea nitrogen and serum creatinine levels were similar across all IR/Nx mice, and were elevated relative to nephrectomy-only control mice (data not shown).
# [2] = system: miR-21; assay: miR-21 luciferase sensor assay in Hela cells; type: cell-based
# Method: The compounds were assessed for miR-21 inhibitory activity in a luciferase assay. A microRNA luciferase sensor construct was engineered using pGL3-MCS2 (Promega). The construct was introduced into Hela cells to test the ability of anti-miR compounds to inhibit activity of miR-21. In this assay, miR-21 present in the Hela cells binds to its cognate site(s) in the luciferase sensor construct, and suppresses luciferase expression. When the appropriate anti-miR is introduced into the cells, it binds to miR-21 and relieves suppression of luciferase expression. Thus, in this assay anti-miRs that are effective inhibitors of miR-21 expression will cause an increase in luciferase expression.
# Hela cells (ATCC), stably transfected with a luciferase construct engineered to contain a sequence complementary of miR-21, were seeded in T-170 flasks (BD Falcon) at 3.5*10^6 cells/flask. Hela cells were grown in Dulbecco's Modified Eagle Medium with High Glucose (Invitrogen).
# Each flask of Hela cells was transfected with 0.5 ug of a phRL sensor plasmid (Promega) expressing Renilla to be used in normalization. Hela cells were transfected using 20 ul Lipofectamine 2000/flask (Invitrogen). After 4 hours of transfection, cells were washed with PBS and trypsinized Hela cells were plated at 40 k/well in 24 well plates (BD Falcon) and left overnight.
# Hela cells were transfected with anti-miRs using Lipofectin (Invitrogen) at 2.5 ul Lipofectin/100 nM ASO/ml Opti-MEM I Reduced Serum Medium (Invitrogen) for 4 hours. After ASO transfection, Hela cells were refed with Dulbecco's Modified Eagle Medium with High Glucose (Invitrogen).
# Hela cells are passively lysed and luciferase activity measured using the Dual-Luciferase Reporter Assay System (Promega).
# The luciferase assay was performed to test the ability of anti-miRs with the nucleoside patterns described herein to inhibit the activity of miR-21. Results were compared to a ‘mock’ treatment, in which cells received no anti-miR treatment. The experiment was repeated and results of two experimental replicates are shown in the following Table B, as the luciferase value normalized to beta-galactosidase activity.
# The luciferase assay was performed as described herein to test the ability of anti-miRs in Table F to inhibit the activity of miR-21. Results were compared to a ‘mock’ treatment, in which cells received no anti-miR treatment. The experiment was repeated and results of two experimental replicates are shown in the following Table D, as fold change in luciferase value relative to the mock treatment.
# [3] = system: UUO model of kidney fibrosis; assay: Unilateral ureteral obstruction (UUO) model of kidney fibrosis: kidney collagen 1A1 and collagen 3A1 expression by real-time PCR; type: in vivo, mice; details: UUO
# Method: Unilateral ureteral obstruction (UUO) is a well-established experimental model of renal injury leading to interstitial fibrosis, and thus is used as an experimental model that is reflective of human kidney disease. UUO is induced by surgically ligating a single ureter. As fibrosis is characterized by an increase in collagen, the presence and extent of kidney fibrosis may be determined by measuring collagen content. Both collagen 1A1 (Col 1A1) and collagen 3A1 (Col 3A1) are measured to assess collagen content. Kidney fibrosis may be visualized by staining tissue samples with picro-sirius red to detect increases in collagen content. Kidney fibrosis may also be observed by measuring the amount of hydroxyproline, which is a major component of collagen, in a sample.
# The cEt-containing anti-miR-21 compounds found to be active in the luciferase assay were tested in the UUO model of kidney fibrosis. 25919 comprising 2′-MOE and 2′-fluoro modifications is known to inhibit miR-21 activity in vivo and was included as a positive control. Groups of 8 animals each were treated as follows: UUO only, UUO with PBS, or UUO with anti-miR-21 compound. Relative to the day of the UUO procedure, PBS or anti-miR-21 compound was administered at days −3, −1, and +5. Anti-miR-21 compounds were administered at a dose of 20 mg/kg. As the anti-miR compounds were administered prior to the UUO procedure, this dosing regimen is considered a prophylactic treatment. At day 11, animals were sacrificed and kidney was isolated for measurement of collagen expression. Collagen expression was measured by real-time PCR and normalized first to GAPDH and then to the sham control animals.
# The UUO study was repeated to confirm the activity of 25070. The anti-miR was administered subcutaneously at a dose of 20 mg/kg.
# (§1) Control treatment groups included UUO only (sham) and UUO with PBS administered subcutaneously. An additional control group included UUO with Tween-MC/20 carrier perorally. 25070 administered subcutaneously at dose of 20 mg/kg at 5 days prior to, 2 days prior to, and 3 days after, the UUO procedure. Irbesartan was administered perorally on daily on days 0 through 7 following the UUO procedure. Animals were sacrificed on Day 10 following the UUO procedure. Kidney tissue was collected for measurement of collagen 1A1 and collagen 3A1 expression.
# Compounds 25220 and 25221, as well as 25923, were tested in the UUO model for their effects on fibrosis. Groups of 8 animals each were treated as follows: sham surgery, UUO with PBS, UUO with 25220, UUO with 25221, or UUO with 25923. Relative to the day of the UUO procedure, PBS or anti-miR-21 compound was administered at days −5, −3, and +3. Anti-miR-21 compounds were administered at a dose of 20 mg/kg. As the anti-miR compounds were administered prior to the UUO procedure, this dosing regimen is considered a prophylactic treatment. At day 10, animals were sacrificed and kidney was isolated for measurement of collagen expression. Collagen expression was measured by real-time PCR and normalized to GAPDH.
# [4] = system: UUO model of kidney fibrosis; assay: UUO model: collagen area fraction of kidney tissue (picrosirius red histology); type: in vivo, mice; details: Table N, 25070 20 mg/kg s.c.
# Method: as §1
# The ‘collagen area fraction’ is measured histologically through quantitative image processing of the area of kidney tissue that is stained red by the picrosirius red stain; the percent detected as red is normalized by the area of kidney section.
# [5] = In vivo stability of compound in kidney tissue after administration to mice; details: kidney tissue after administration
# [6] = Ex vivo liver homogenate stability assay (HPLC-TOF MS); details: 24 hours at 37° C.
# [7] = 20 mg/kg at days -5, -3, +3, kidney at day 10
# [8] = Table M, individual animals, 25070 20 mg/kg s.c. 5 and 2 days prior to and 3 days after UUO, irbesartan PO daily days 0-7, sacrifice Day 10, 20 mg/kg
compound,measurement,setting,value
"AEASATCSTGTCSTCAUSAATASAAE [Compound 25109, reference compound]",geometric mean of the urinary albumin to creatinine ratio,[1],140 μgAlb/mgCr
"AECSATCSAGTCSTGAUSAAGCSTAS (antisense ACATCAGTCTGATAAGCTA; cEt and 2'-MOE nucleosides, code letters not given here, further chemistry not given here) [Compound 25923, variation of 25070: 3′-terminal nucleoside is a cEt nucleoside rather than 2′-MOE nucleoside]",inhibition of miR-21 activity in the luciferase assay (in words),[2]; Hela cells,inhibition of miR-21 in a dose-dependent manner
same,fold change in luciferase value relative to the mock treatment,[2]; concentration of anti-miR compound 0.2 (unit not given),1.06 fold change
same,fold change in luciferase value relative to the mock treatment,[2]; concentration of anti-miR compound 0.6 (unit not given),1.01 fold change
same,fold change in luciferase value relative to the mock treatment,[2]; concentration of anti-miR compound 1.9 (unit not given),1.10 fold change
same,fold change in luciferase value relative to the mock treatment,[2]; concentration of anti-miR compound 5.6 (unit not given),5.18 fold change
same,fold change in luciferase value relative to the mock treatment,[2]; concentration of anti-miR compound 16.7 (unit not given),11.34 fold change
same,fold change in luciferase value relative to the mock treatment,[2]; concentration of anti-miR compound 50.0 (unit not given),10.81 fold change
same,"collagen 1A1 expression (FIG. 2A, in words)",[3]; [7],reduced collagen 1A1 and collagen 3A1 expression by a stastically significant amount
same,"collagen 3A1 expression (FIG. 2B, in words)",[3]; [7],reduced collagen 1A1 and collagen 3A1 expression by a stastically significant amount
same,reduction in urinary albumin to creatinine ratio (significance),"[1]; 20 mg/kg subcutaneously on days 2, 3, 4, and 8",statistically significant reductions
same,geometric mean of the urinary albumin to creatinine ratio,[1],31 μgAlb/mgCr
"CCCCC1=NC2(CCCC2)C(=O)N1Cc1ccc(-c2ccccc2-c2nnn[nH]2)cc1 [irbesartan, reference compound]",Collagen 3A1 (Normalized Expression) Mean,"[3]; Table M, group mean, 25070 20 mg/kg s.c., irbesartan PO daily days 0-7, Day 10, UUO-PBS 93.2, Tween/MC vehicle 132.4",73.2
same,Collagen 1A1 (Normalized Expression) Mean,"[3]; Table M, group mean, 25070 20 mg/kg s.c., irbesartan PO daily days 0-7, Day 10, UUO-PBS 129.6, Tween/MC vehicle 150.2",117.8
same,Collagen 1A1 (Normalized Expression),[3]; [8],125.4 and 86.7 and 106.6 and 110.7 and 198.3 and 92.2 and 118.1 and 104.1
same,Collagen 3A1 (Normalized Expression),[3]; [8],65.5 and 63.8 and 63.2 and 50.8 and 63.6 and 82.8 and 122.5
same,reduction in Col3a1 expression (significance),"[3]; comparison with irbesartan, sacrifice Day 10",statistically significant reductions
same,reduction in Col1A1 expression relative to saline-treated animals (significance),"[3]; comparison with irbesartan, sacrifice Day 10, p<0.05 by one-way ANOVA",did not yield a statistically significant reduction
same,Collagen Area Fraction (%) Mean,"[4]; group mean, irbesartan PO, Day 10, UUO-PBS 11.1, Tween/MC vehicle 8.0",8.0%
same,Collagen Area Fraction (%),"[4]; individual animals, irbesartan PO daily days 0-7, Day 10, picrosirius red, 20 mg/kg",6.105% and 7.481% and 15.877% and 7.914% and 6.614% and 5.706% and 7.798% and 6.154%
AECSATCSASGTCSUSGAUSASAGCSUsAE (ACATCAGTCTGATAAGCTA; sugar and backbone modifications) [Compound 25220],in vivo (kidney) N − 1 (%),[5]; compound lacking the 3′-terminal nucleoside,16 ± 6%
same,in vivo (kidney) N (%),[5]; full-length compound,67 ± 16%
same,ex vivo (liver) N %↓,"[6]; 5 μM oligonucleotide in liver homogenate (50 mg tissue per ml), full-length compound",3%
same,ex vivo (liver) % Endo,[6]; 5 μM oligonucleotide in liver homogenate,3%
same,ex vivo (liver) % N − 1,"[6]; 5 μM oligonucleotide in liver homogenate, compound lacking the 3′-terminal nucleoside",0%
